target: T1, Acetolactate synthase, chloroplastic (Arabidopsis thaliana, UniProt P17597); assay: Inhibitory activity against Acetolactate synthase (ALS) enzyme by using the rape-root growth method; conditions: not given
T1 sequence (P17597 whole entry): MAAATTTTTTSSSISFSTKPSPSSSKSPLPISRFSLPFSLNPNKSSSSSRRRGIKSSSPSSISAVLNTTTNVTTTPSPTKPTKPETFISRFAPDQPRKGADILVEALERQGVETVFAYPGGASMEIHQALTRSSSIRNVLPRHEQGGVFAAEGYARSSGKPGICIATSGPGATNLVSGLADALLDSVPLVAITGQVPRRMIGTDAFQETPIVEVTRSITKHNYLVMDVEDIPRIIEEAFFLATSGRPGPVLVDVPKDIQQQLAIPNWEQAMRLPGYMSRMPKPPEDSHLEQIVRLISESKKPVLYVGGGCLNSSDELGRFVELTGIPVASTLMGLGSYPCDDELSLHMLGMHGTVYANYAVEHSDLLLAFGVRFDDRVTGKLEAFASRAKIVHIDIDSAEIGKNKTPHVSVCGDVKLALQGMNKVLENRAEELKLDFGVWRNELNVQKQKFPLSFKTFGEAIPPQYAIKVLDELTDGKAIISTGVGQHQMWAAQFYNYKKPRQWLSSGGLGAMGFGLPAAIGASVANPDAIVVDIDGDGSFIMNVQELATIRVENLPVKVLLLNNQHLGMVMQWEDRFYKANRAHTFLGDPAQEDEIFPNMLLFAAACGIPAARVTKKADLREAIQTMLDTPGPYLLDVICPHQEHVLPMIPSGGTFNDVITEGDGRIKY

Row | IC50 | Compound
1 | > 100 p.p.m. | COc1ccc(C(=O)OCn2ccc(=O)[nH]c2=O)cc1
2 | > 0.000309 M l-1 | Cc1cnc(NS(=O)(=O)c2cc(Cl)ccc2Cl)s1
3 | > 100 p.p.m. | O=C(OCn1ccc(=O)[nH]c1=O)c1c(Cl)cc(C(F)(F)F)cc1Cl
4 | > 100 p.p.m. | COc1ccccc1C(=O)OCn1ccc(=O)[nH]c1=O

Second part, the compound before the results:

Row | Compound | IC50
5 | Cc1ccnc(NS(=O)(=O)c2ccccc2[N+](=O)[O-])n1 | 0.000287 M l-1
6 | O=C(OCn1ccc(=O)[nH]c1=O)c1ccc(I)cc1 | > 100 p.p.m.
7 | O=C(OCn1ccc(=O)[nH]c1=O)c1ccc(Cl)cc1 | 51.29 p.p.m.
8 | O=C(OCn1ccc(=O)[nH]c1=O)c1ccc(Br)cc1 | 55.38 p.p.m.
9 | O=C(OCn1ccc(=O)[nH]c1=O)c1ccccc1 | 55.36 p.p.m.
10 | COc1cc(Cl)nc(NS(=O)(=O)c2ccc(F)cc2)n1 | 0.000111 M l-1
11 | Cc1ccc(NS(=O)(=O)c2ccc(F)cc2)nc1 | 0.000152 M l-1
12 | O=C(OCn1ccc(=O)[nH]c1=O)c1ccc([N+](=O)[O-])cc1 | > 100 p.p.m.
13 | Cc1cccc(C(=O)OCn2ccc(=O)[nH]c2=O)c1 | 16.04 p.p.m.
14 | O=C(OCn1ccc(=O)[nH]c1=O)c1ccc(F)cc1 | 55.86 p.p.m.

same assay, conditions: read-out: IC50

Row | IC50 | Compound
15 | 58.9 µM | Cc1ccnc(NS(=O)(=O)c2ccc(Br)cc2)n1
16 | 84.7 µM | O=S(=O)(Nc1nccs1)c1cc(Cl)ccc1Cl

More lines, now with the values behind:

Row | Compound | IC50
17 | Cc1cc(C)nc(NS(=O)(=O)c2cc(Cl)ccc2Cl)n1 | 33 µM
18 | Cc1ccnc(NS(=O)(=O)c2ccc(F)cc2)n1 | 38.9 µM
19 | Cc1ccnc(NS(=O)(=O)c2cc(Cl)ccc2Cl)n1 | 97.2 µM

Source: ChEMBL document CHEMBL1131784, “The design and synthesis of ALS inhibitors from pharmacophore models” (Bioorg Med Chem Lett, 1999)
